From PubChem BioAssay AID1259407 (Chemical Carcinogenesis Research Information System (CCRIS), 2018)
The source made the active and inactive calls. No rule for the calls is given here.

Tested on: CCRIS mutagenicity, Ames/micronucleus/aberration tests
Test: CCRIS mutagenicity studies
[1] = Test System: AMES SALMONELLA TYPHIMURIUM, Strain/Indicator: TA100, Metabolic Activation: RAT, LIVER, S-9, PCB, Method: PREINCUBATION
[2] = Test System: AMES SALMONELLA TYPHIMURIUM, Strain/Indicator: TA98, Metabolic Activation: NONE, Method: STANDARD PLATE
[3] = Test System: AMES SALMONELLA TYPHIMURIUM, Strain/Indicator: TA98, Metabolic Activation: RAT, LIVER, S-9, AROCLOR 1254, Method: STANDARD PLATE
[4] = Test System: AMES SALMONELLA TYPHIMURIUM, Strain/Indicator: TA100, Metabolic Activation: NONE, Method: STANDARD PLATE

## NNc1nncc2ccncc12
Test System: AMES SALMONELLA TYPHIMURIUM, Strain/Indicator: TA98, Metabolic Activation: NONE, Method: PREINCUBATION
  mutagenic call: active; positive
Test System: AMES SALMONELLA TYPHIMURIUM, Strain/Indicator: TA98, Metabolic Activation: RAT, LIVER, S-9, PCB, Method: PREINCUBATION
  mutagenic call: active; positive
Test System: AMES SALMONELLA TYPHIMURIUM, Strain/Indicator: TA100, Metabolic Activation: NONE, Method: PREINCUBATION
  mutagenic call: active; positive
[1]
  mutagenic call: active; positive

## O=[N+]([O-])c1ccc2[nH]c3ccc([N+](=O)[O-])cc3c2c1
Test System: AMES SALMONELLA TYPHIMURIUM, Strain/Indicator: TA98(NR), Metabolic Activation: NONE, Method: STANDARD PLATE
  mutagenic call: active; positive
Test System: AMES SALMONELLA TYPHIMURIUM, Strain/Indicator: TA98(NR), Metabolic Activation: RAT, LIVER, S-9, AROCLOR 1254, Method: STANDARD PLATE
  mutagenic call: active; positive
[2]
  mutagenic call: active; positive
[3]
  mutagenic call: active; positive

## Cc1ccc(C)c2c1c1ccccc1n2C
[2]
  mutagenic call: inactive; negative
Test System: AMES SALMONELLA TYPHIMURIUM, Strain/Indicator: TA98, Metabolic Activation: RAT LIVER S-9, AROCLOR 1254, Method: STANDARD PLATE
  mutagenic call: active; positive
[4]
  mutagenic call: inactive; negative
Test System: AMES SALMONELLA TYPHIMURIUM, Strain/Indicator: TA100, Metabolic Activation: RAT LIVER S-9, AROCLOR 1254, Method: STANDARD PLATE
  mutagenic call: active; positive

## Cc1ccc2cc3c(cc2c1)-c1cccc2cccc-3c12
Test System: AMES SALMONELLA TYPHIMURIUM, Strain/Indicator: TA100, Metabolic Activation: RAT, LIVER, S-9, AROCLOR 1254
  mutagenic call: active; positive

## CC(=O)CN(CC(C)O)N=O (stereo not drawn)
Test System: AMES SALMONELLA TYPHIMURIUM, Strain/Indicator: TA100, Metabolic Activation: HAMSTER, LIVER, S-9, 3-METHYLCHOLANTHRENE, Method: PREINCUBATION
  mutagenic call: active; positive
Test System: AMES SALMONELLA TYPHIMURIUM, Strain/Indicator: TA100, Metabolic Activation: HAMSTER, LIVER, S-9, PHENOBARBITAL, Method: PREINCUBATION
  mutagenic call: active; positive
Test System: AMES SALMONELLA TYPHIMURIUM, Strain/Indicator: TA100, Metabolic Activation: HAMSTER, LIVER, S-9, Method: PREINCUBATION
  mutagenic call: active; positive
Test System: AMES SALMONELLA TYPHIMURIUM, Strain/Indicator: TA100, Metabolic Activation: HUMAN, LIVER, S-9, Method: PREINCUBATION
  mutagenic call: active; positive
Test System: AMES SALMONELLA TYPHIMURIUM, Strain/Indicator: TA100, Metabolic Activation: MONKEY, LIVER, S-9, Method: PREINCUBATION
  mutagenic call: active; positive
Test System: AMES SALMONELLA TYPHIMURIUM, Strain/Indicator: TA100, Metabolic Activation: MOUSE, LIVER, S-9, 3-METHYLCHOLANTHRENE, Method: PREINCUBATION
  mutagenic call: active; positive
Test System: AMES SALMONELLA TYPHIMURIUM, Strain/Indicator: TA100, Metabolic Activation: MOUSE, LIVER, S-9, PHENOBARBITAL, Method: PREINCUBATION
  mutagenic call: active; positive
Test System: AMES SALMONELLA TYPHIMURIUM, Strain/Indicator: TA100, Metabolic Activation: MOUSE, LIVER, S-9, Method: PREINCUBATION
  mutagenic call: active; positive
Test System: AMES SALMONELLA TYPHIMURIUM, Strain/Indicator: TA100, Metabolic Activation: RABBIT, LIVER, S-9, Method: PREINCUBATION
  mutagenic call: active; positive
Test System: AMES SALMONELLA TYPHIMURIUM, Strain/Indicator: TA100, Metabolic Activation: RAT, LIVER, CYTOSOL, PCB, Method: PREINCUBATION
  mutagenic call: active; positive
Test System: AMES SALMONELLA TYPHIMURIUM, Strain/Indicator: TA100, Metabolic Activation: RAT, LIVER, MICROSOMES AND CYTOSOL, PCB, Method: PREINCUBATION
  mutagenic call: active; positive
Test System: AMES SALMONELLA TYPHIMURIUM, Strain/Indicator: TA100, Metabolic Activation: RAT, LIVER, MICROSOMES AND G6PDH, PCB, Method: PREINCUBATION
  mutagenic call: active; positive
Test System: AMES SALMONELLA TYPHIMURIUM, Strain/Indicator: TA100, Metabolic Activation: RAT, LIVER, MICROSOMES, PCB, Method: PREINCUBATION
  mutagenic call: active; positive
Test System: AMES SALMONELLA TYPHIMURIUM, Strain/Indicator: TA100, Metabolic Activation: RAT, LIVER, S-9 (HEATED), PCB, Method: PREINCUBATION
  mutagenic call: active; positive
Test System: AMES SALMONELLA TYPHIMURIUM, Strain/Indicator: TA100, Metabolic Activation: RAT, LIVER, S-9, 3-METHYLCHOLANTHRENE, Method: PREINCUBATION
  mutagenic call: active; positive
[1]
  mutagenic call: active; positive
Test System: AMES SALMONELLA TYPHIMURIUM, Strain/Indicator: TA100, Metabolic Activation: RAT, LIVER, S-9, PHENOBARBITAL, Method: PREINCUBATION
  mutagenic call: active; positive
Test System: AMES SALMONELLA TYPHIMURIUM, Strain/Indicator: TA100, Metabolic Activation: RAT, LIVER, S-9, Method: PREINCUBATION
  mutagenic call: active; positive
Test System: AMES SALMONELLA TYPHIMURIUM, Strain/Indicator: TA100, Metabolic Activation: RAT, LIVER, S-9 WITHOUT NADP+, PCB, Method: PREINCUBATION
  mutagenic call: active; positive
Test System: AMES SALMONELLA TYPHIMURIUM, Strain/Indicator: TA100, Method: PREINCUBATION
  mutagenic call: active; positive
Test System: CHINESE HAMSTER V-79, Strain/Indicator: V-79/OUABAIN, Metabolic Activation: HAMSTER, HEPATOCYTES, Method: CELL-MEDIATED
  mutagenic call: active; positive

## COc1c(O)cc(Cl)cc1Cl
Test System: CHINESE HAMSTER V-79, Strain/Indicator: V-79/6-THIOGUANINE, Metabolic Activation: NONE, Method: STANDARD PLATE
  mutagenic call: inactive; negative

## Cc1cccc(C)c1N=Nc1c(O)ccc2ccccc12
[2]
  mutagenic call: inactive; negative
Test System: AMES SALMONELLA TYPHIMURIUM, Strain/Indicator: TA98, Metabolic Activation: RAT, LIVER, S-9, Method: STANDARD PLATE
  mutagenic call: inactive; negative
[4]
  mutagenic call: inactive; negative
Test System: AMES SALMONELLA TYPHIMURIUM, Strain/Indicator: TA100, Metabolic Activation: RAT, LIVER, S-9, Method: STANDARD PLATE
  mutagenic call: inactive; negative

## COc1c2ccccc2[n+]([O-])c2occc12
[2]
  mutagenic call: inactive; negative
Test System: AMES SALMONELLA TYPHIMURIUM, Strain/Indicator: TA98, Metabolic Activation: RAT LIVER S-9, PHENOBARTITAL, Method: STANDARD PLATE
  mutagenic call: inactive; negative

## O=C1N=NC(=O)C2C=CC=CC12 (stereo not drawn)
Test System: AMES SALMONELLA TYPHIMURIUM, Strain/Indicator: TA98, Metabolic Activation: HAMSTER, LIVER, S-9, AROCLOR 1254, Method: STANDARD PLATE
  mutagenic call: inactive; negative
[2]
  mutagenic call: inactive; negative
[3]
  mutagenic call: inactive; negative
Test System: AMES SALMONELLA TYPHIMURIUM, Strain/Indicator: TA100, Metabolic Activation: HAMSTER, LIVER, S-9, AROCLOR 1254, Method: STANDARD PLATE
  mutagenic call: inactive; negative
[4]
  mutagenic call: inactive; negative
Test System: AMES SALMONELLA TYPHIMURIUM, Strain/Indicator: TA100, Metabolic Activation: RAT, LIVER, S-9, AROCLOR 1254, Method: STANDARD PLATE
  mutagenic call: inactive; negative
Test System: AMES SALMONELLA TYPHIMURIUM, Strain/Indicator: TA1535, Metabolic Activation: HAMSTER, LIVER, S-9, AROCLOR 1254, Method: STANDARD PLATE
  mutagenic call: inactive; negative
Test System: AMES SALMONELLA TYPHIMURIUM, Strain/Indicator: TA1535, Metabolic Activation: NONE, Method: STANDARD PLATE
  mutagenic call: inactive; negative
Test System: AMES SALMONELLA TYPHIMURIUM, Strain/Indicator: TA1535, Metabolic Activation: RAT, LIVER, S-9, AROCLOR 1254, Method: STANDARD PLATE
  mutagenic call: inactive; negative
Test System: AMES SALMONELLA TYPHIMURIUM, Strain/Indicator: TA1537, Metabolic Activation: HAMSTER, LIVER, S-9, AROCLOR 1254, Method: STANDARD PLATE
  mutagenic call: inactive; negative
Test System: AMES SALMONELLA TYPHIMURIUM, Strain/Indicator: TA1537, Metabolic Activation: NONE, Method: STANDARD PLATE
  mutagenic call: inactive; negative
Test System: AMES SALMONELLA TYPHIMURIUM, Strain/Indicator: TA1537, Metabolic Activation: RAT, LIVER, S-9, AROCLOR 1254, Method: STANDARD PLATE
  mutagenic call: inactive; negative
Test System: AMES SALMONELLA TYPHIMURIUM, Strain/Indicator: TA1538, Metabolic Activation: HAMSTER, LIVER, S-9, AROCLOR 1254, Method: STANDARD PLATE
  mutagenic call: inactive; negative
Test System: AMES SALMONELLA TYPHIMURIUM, Strain/Indicator: TA1538, Metabolic Activation: NONE, Method: STANDARD PLATE
  mutagenic call: inactive; negative
Test System: AMES SALMONELLA TYPHIMURIUM, Strain/Indicator: TA1538, Metabolic Activation: RAT, LIVER, S-9, AROCLOR 1254, Method: STANDARD PLATE
  mutagenic call: inactive; negative
Test System: Mouse lymphoma, Strain/Indicator: L5178Y (tk+/tk-), Metabolic Activation: None, Method: Suspension/plate
  mutagenic call: inactive; negative
Test System: Mouse lymphoma, Strain/Indicator: L5178Y (tk+/tk-), Metabolic Activation: Rat, liver, S-9, Aroclor 1254, Method: Suspension/plate
  mutagenic call: active; positive
